Source: publication PMC8164802, “Biological evaluation of Safrole oil and Safrole oil Nanoemulgel as antioxidant, antidiabetic, antibacterial, antifungal and anticancer” (BMC Complementary Medicine and Therapies, 2021)

Molecular target: T1, porcine pancreatic α-amylase (Sus scrofa, UniProt P00690)
T1 construct: gene AMY2
Assay: DNSA colorimetric assay of starch hydrolysis, […] nm
Assay type: biochemical

T1 sequence (P00690 16-511): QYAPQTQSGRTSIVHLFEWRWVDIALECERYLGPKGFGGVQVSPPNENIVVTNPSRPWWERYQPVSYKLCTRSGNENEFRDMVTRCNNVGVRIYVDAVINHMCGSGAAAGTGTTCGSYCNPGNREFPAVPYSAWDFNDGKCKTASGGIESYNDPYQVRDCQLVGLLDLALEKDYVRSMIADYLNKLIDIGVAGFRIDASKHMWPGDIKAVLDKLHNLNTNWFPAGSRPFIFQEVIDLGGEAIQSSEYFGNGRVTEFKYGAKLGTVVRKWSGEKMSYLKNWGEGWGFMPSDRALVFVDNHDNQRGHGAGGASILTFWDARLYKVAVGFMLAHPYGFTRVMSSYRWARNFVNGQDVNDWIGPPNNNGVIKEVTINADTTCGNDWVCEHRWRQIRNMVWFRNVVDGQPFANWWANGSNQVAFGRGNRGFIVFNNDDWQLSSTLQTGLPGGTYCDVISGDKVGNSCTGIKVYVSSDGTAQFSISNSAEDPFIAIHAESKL

## C=CCc1ccc2c(c1)OCO2 [Safrole, 1-allyl-3,4-methylenedioxybenzene]
  IC50: 70 µM
